Test results published in patent US9655838B2, “Antimicrobial compositions comprising essential oil combinations” (priority 2013, dated 2017).
Where two headings read alike, the source gives them in different places.

Columns and labels:
[1] = tested on: A. viscosus; assay: Determination of MIC of individual essential oils (broth microdilution, O.D. at 610 nm); format: cell-based, A. viscosus ATCC 43146; conditions: for MIC: Actinomyces viscosus
Method: Minimum inhibitory concentration (MIC) is assessed as follows: A 96-well microtiter plate is inoculated with 100 μl of TSB (Tryptic Soy Broth) media in each well. Stock solutions of the active are prepared as required (w/v basis) in percent. The different stock solutions (>1%) are used to achieve the final MIC concentration of the actives. The positive control (Triclosan) is prepared as a 0.1% stock solution. Each active is diluted 1:10 using sterile TSB. 100 μl of the stock solution is added in the first column for the actives and the controls. Transfer 100 μl of the solution from the first column to the next, mix and repeat the transfer to serially dilute 2-fold across the plate. The last 100 μl is discarded. Prepare 0.2-0.3 O.D. activated culture of A. viscosus ATCC 43146 grown in TSB overnight at 37° C. Add 100 μl of the adjusted bacterial culture to each well. Incubate the plates for 24 hours at 37° C. Determine the growth by measuring the O.D. at 610 nm. The data is transferred to an Excel spreadsheet for comparison of the O.D. values. The concentration higher than the lowest concentration with large increment in O.D. is taken as the MIC. Depending on the value obtained the MIC is repeated using higher or lower concentrations of the stock solution. This gives the closest value of the concentration determined by serial dilution at which the microorganism is inhibited (MIC).

[2] = cited from earlier work
[3] = individual essential oils against A. viscosus, 24 hours at 37° C, read-out: MIC value (ppm)
[4] = Table 3, essential oil alone, read-out: Individual MIC (concentration of each essential oil alone necessary to produce the same effect)
[5] = individual essential oils against A. viscosus, 24 hours at 37° C

| Compound | MIC [1, 3] [µg/mL] | MIC value (ppm) [1, 5] [ppm] | further results |
| --- | --- | --- | --- |
| OCc1ccccc1 [Benzyl alcohol] | 700 | – | – |
| Cc1ccc(C(C)C)cc1O [Carvacrol, carvacrol] | – | – | MIC ([1]; 24 h, read-out: MIC value (ppm)): 80 µg/mL; MIC ([1]; read-out: Individual MIC (concentration of each essential oil alone necessary to produce the same effect)): 80 µg/mL; Individual MIC (concentration of each essential oil alone necessary to produce the same effect) ([1]; Table 3, essential oil alone): 80 ppm |
| CC(C)=CCCC(C)=CC=O [Citral] | 250 | – | MIC [1, 4]: 250 µg/mL |
| CCCc1ccc(O)c(OC)c1 [Dihydro-eugenol] | – | 500 | – |
| CC12CCC(CC1)C(C)(C)O2 [Eucalyptol] | 250 | – | – |
| C=CCc1ccc(O)c(OC)c1 [Eugenol] | 2000 | – | – |
| Cc1cc(O)ccc1C(C)C [IPMP (99.8% pure)] | – | 160 | – |
| COC(=O)c1ccccc1O [Methyl salicylate] | 1000 | – | – |
| Cc1ccc(C(C)C)c(O)c1 [Thymol (98% pure), Thymol] | 900 | – | MIC [1, 4]: 900 µg/mL |
| O=C([O-])CC(O)(CC(=O)[O-])C(=O)[O-].O=C([O-])CC(O)(CC(=O)[O-])C(=O)[O-].[Zn+2].[Zn+2].[Zn+2] [Zinc citrate] | – | 160 | – |
| [O]=[Zn] [Zinc oxide] | – | 625 | – |
| CC(C)=CCC[C@](C)(O)[C@@H]1CC=C(C)CC1 [bisabolol, α-(−)-bisabolol] | – | – | Solubility in ethanol ([2]; ethanol): soluble; Solubility in water and glycerin ([2]; water and glycerin): almost insoluble |
| Catechins hydrate | – | 100 | – |
| α-(±)-bisabolol [Syn. Bisabolol] | – | 125 | Individual MIC (concentration of each essential oil alone necessary to produce the same effect) ([1]; Table 3, essential oil alone): 125 ppm |
